Measured values as given in patent US10292390B2, “Inhibition and dispersion of bacterial biofilms with 2-aminobenzimidazole derivatives” (WISCONSIN ALUMNI RESEARCH FOUNDATION, priority 2011, dated 2019).
Read-outs that look alike come from different tables or passages of the source.

How the values were obtained:
[1] = system: P. aeruginosa PAO1 biofilm; experiment: crystal violet static biofilm inhibition assay; type: cell-based, Pseudomonas aeruginosa; details: for IC50: Pseudomonas aeruginosa, PAO1; for anti-biofilm (biofilm inhibitory) activity in words: initial screen at 500 μM, 12 and 24 h; for inhibition of biofilm growth: at 100 micro M, 24 h
Protocol: Stilbenes 1, 2, and 4a-b were tested for inhibition of biofilm formation in a wild-type P. aeruginosa strain (PAO1) at 500 μM using standard static biofilm growth assays.
Biofilms were grown in a modified M9 minimal media in 96-well microtiter plates, and crystal violet staining of the surface-associated biomass was used to quantify biofilm growth at 12 and 24 h (see The Examples).
A modified version of the widely used crystal violet (CV) microtiter plate biofilm assay, first described by Christensen et al. and later popularized by O'Toole et al., [57] was used in this study and is described in detail below.
Compounds to be evaluated for biofilm modulatory activity were added to the assay microtiter plates by means of a “solvent evaporation” delivery. This delivery method involves preparation of compound stock solutions, addition of stocks to microtiter plates at appropriate volumes to obtain target molar quantities per well, evaporation of the solvent, and re-solubilization of the compound in the final assay medium upon inoculum addition. This delivery method was adopted to avoid the biofilm inhibitory effects observed with an “organic solvent-to-solution” delivery method (e.g., DMSO-to-media; data not shown), which is more commonly done in small molecule screens. EtOH was chosen as the solvent for solvent evaporation delivery in this study based on the chemical resistance limitations of polystyrene microtiter plates. Prior to each experiment, EtOH stock solutions of compounds being evaluated were prepared, diluted, and added to microtiter plates at varied volumes to obtain a target final concentration per well upon inoculum addition. Plates were incubated at 37° C. to evaporate EtOH and sterilized in a Baker SterilGARD III Advance Biological Safety Cabinet by UV-C germicidal irradiation for 30 min (lids removed). EtOH only was added to wells designated as “no compound” positive controls (Pos. Con.) and “no bacteria” negative controls (note, controls lacking bacteria yielded no significant staining in the CV assay (data not shown)). The outer wells were never used for test samples as evaporation and significant deviations in growth were observed; thus, outer wells were filled with sterile 18 MΩ H2O to minimize these effects.
Bacterial samples for biofilm assessment were prepared by first streaking a freezer stock of P. aeruginosa PAO1 on an LB/agar plate and incubating at 37° C. for ˜16 h. Single colonies were selected and used to inoculate LB medium (10 mL) in a 25 mL Erlenmeyer flask. The culture was grown on an incubator-shaker (200 rpm) at 37° C. for ˜16 h to an OD600 of ˜1.0. Overnight cultures were gently decanted into falcon tubes to minimize transfer of biofilm produced during overnight growth. An inoculating culture was prepared by centrifuging an aliquot of overnight culture at 3,000 rpm for 10 min, removal of the supernatant, and then re-suspending the pellet in 95:5 M9+:LB at 10-fold the initial volume (effecting a 1-in-10 dilution; OD600 ˜0.1-0.2). Using a multi-channel pipette, this culture was added to test microtiter plates in 200 μL aliquots. The well contents were mixed using a 10 μL multi-channel pipette in a swirling motion; insoluble compound samples were noted and later excluded from the data set as needed.
Plates were covered with the provided lid and incubated statically at 37° C. for 12-24 h. Maximal biofilm formation is obtained at 24 h, after which the amount of biofilm declines unless fresh nutrients are provided. After incubation, the OD600 was measured, and the bacterial suspension was removed by inverting and shaking the plate over a waste pan and then taping on a paper towel (process termed “dumping”). Non-biofilm associated biomaterial was removed by adding 225 μL PBS and dumping (process termed “washing”) and then repeating this washing process. Biofilm was fixed to the microtiter plates by uncovering the plate and thermally dehydrating at 37° C. […]

Gram-positive bacteria = details: WO 2010/144686 (7); ref. 34 (18); cited from earlier work
[2] = 12 h incubation, CV assay, read-out: 12 h biofilm IC50
[3] = 24 h incubation, CV assay, read-out: 24 h biofilm IC50
[4] = Table 1, crystal violet, read-out: IC50, P. aeruginosa PAO1 biofilm inhibition

Compound `Nc1nc2cc3ccccc3cc2[nH]1` [Compound 24, 2-Amino-1H-naphtho[2,3-d]imidazole] has an IC50 [1, 2] of 54.5 µM, an IC50 [1, 3] of 48.3 µM and an IC50 [1, 4] of 48 µM.
Work on `COc1ccc2[nH]c(N)nc2c1` [Compound 22, 5-Methoxy-2-aminobenzimidazole] yielded an IC50 [1, 2] of 73.8 µM, an IC50 [1, 3] of 80.1 µM and an IC50 [1, 4] of 80 µM.
Compound `COC(=O)c1ccc2[nH]c(N)nc2c1` [Compound 15, 5-Carboxylic acid methyl ester-2-aminobenzimidazole] has an IC50 [1, 2] of 186 µM, an IC50 [1, 3] of 139 µM and an IC50 [1, 4] of 140 µM.
`Cc1cccc2[nH]c(N)nc12` [Compound 19, 4-Methyl-2-aminobenzimidazole] gave an IC50 [1, 2] of 37.6 µM, an IC50 [1, 3] of 38.7 µM and an IC50 [1, 4] of 39 µM.
With `COc1ccc2[nH]c(=S)[nH]c2c1` [Compound 5-OMe-2-TBI, reference compound] the “anti-biofilm (biofilm inhibitory) activity in words” value [1] was “significantly less active than 2-ABI derivatives”.
In the case of `N=C(N)N` [Compound 9, Guanidine, reference compound], the “anti-biofilm (biofilm inhibitory) activity in words” value [1] is reported as “neither 2-AI (8) nor guanidine (9) was found to display significant inhibitory activity”.
`Nc1nc2cc(F)ccc2[nH]1` [Compound 13, 5-Fluoro-2-aminobenzimidazole] gave an IC50 [1, 2] of 30.2 µM, an IC50 [1, 3] of 35.2 µM and an IC50 [1, 4] of 35 µM.
In the case of `C(=C\c1ccc2nc[nH]c2c1)/c1ccccc1` [Compound 5, 6-Styryl-1H-benzimidazole], the “anti-biofilm (biofilm inhibitory) activity in words” value [1] is reported as “complete loss of inhibitory activity”.
For `C(=C\c1ccc2cc[nH]c2c1)/c1ccccc1` [Compound 4b, 6-Styryl-1H-indole], the “anti-biofilm (biofilm inhibitory) activity in words” value [1] was “Neither indole, derivative (4a-b), however, showed appreciable anti-biofilm activity”.
In the case of `Nc1ncc[nH]1` [Compound 8, 2-aminoimidazole, reference compound], the “anti-biofilm (biofilm inhibitory) activity in words” value [1] is reported as “neither 2-AI (8) nor guanidine (9) was found to display significant inhibitory activity”.
For `Nc1nc2ccc(/C=C/c3ccccc3)cc2[nH]1` [Compound 1, 6-Styryl-2-aminobenzimidazole], the IC50 [1, 2] was 13 µM, the IC50 [1, 3] was 8.9 µM and the “inhibition of biofilm growth” value [1] was 56%.
In the case of `C(=C\c1ccc2[nH]ccc2c1)/c1ccccc1` [Compound 4a, 5-Styryl-1H-indole], the “anti-biofilm (biofilm inhibitory) activity in words” value [1] is reported as “Neither indole, derivative (4a-b), however, showed appreciable anti-biofilm activity”.
In the case of `Nc1nc2cc(C(=O)O)ccc2[nH]1` [Compound 16, 5-Carboxylic acid-2-aminobenzimidazole], the “anti-biofilm (biofilm inhibitory) activity in words” value [1] is reported as “total loss”.
With `C(=Cc1ccccc1)c1ccccc1` [Compound 6, Stilbene, reference compound] the “anti-biofilm (biofilm inhibitory) activity in words” value [1] was “complete loss of inhibitory activity”.
Work on `Nc1nc2cc([N+](=O)[O-])ccc2[nH]1` [Compound 18, 5-Nitro-2-aminobenzimidazole] yielded an IC50 [1, 2] of 49.6 µM, an IC50 [1, 3] of 63.1 µM and an IC50 [1, 4] of 63 µM. The “biofilm inhibition in Gram-positive bacteria as reported” value (Gram-positive bacteria) was “reported to be a biofilm inhibitor in Gram-positive bacteria”.
`Nc1nc2cc(Br)ccc2[nH]1` [Compound 11, 5-Bromo-2-aminobenzimidazole] gave an IC50 [1, 2] of 22 µM, an IC50 [1, 3] of 22.2 µM and an IC50 [1, 4] of 22 µM.
For `Nc1nc2cc(I)ccc2[nH]1` [Compound 10, 5-Iodo-2-aminobenzimidazole], the IC50 [1, 2] was 26.3 µM, the IC50 [1, 3] was 20.3 µM and the IC50 [1, 4] was 20 µM.
`Cc1ccc2[nH]c(N)nc2c1` [Compound 20, 5-Methyl-2-aminobenzimidazole] showed an IC50 [1, 2] of 27.3 µM, an IC50 [1, 3] of 25.4 µM and an IC50 [1, 4] of 25 µM.
With `Nc1nc(-c2ccc(/C=C/c3ccccc3)cc2)c[nH]1` [Compound 2, 4-(E)-Stilbene-2-aminoimidazole] the IC50 [1, 2] was 3.8 µM, the IC50 [1, 3] was 18 µM and the “inhibition of biofilm growth” value [1] was 48%.
In the case of `S=c1[nH]c2ccccc2[nH]1` [Compound 2-TBI, 2-thiobenzamidazole, reference compound], the “anti-biofilm (biofilm inhibitory) activity in words” value [1] is reported as “significantly less active than 2-ABI derivatives”.
Work on `N#Cc1ccc2[nH]c(N)nc2c1` [Compound 17, 5-Cyano-2-aminobenzimidazole] yielded an IC50 [1, 2] of 199 µM, an IC50 [1, 3] of 175 µM and an IC50 [1, 4] of 180 µM.
Compound `Nc1nc2cc(Cl)ccc2[nH]1` [Compound 12, 5-Chloro-2-aminobenzimidazole] has an IC50 [1, 2] of 25.7 µM, an IC50 [1, 3] of 27.5 µM and an IC50 [1, 4] of 28 µM.
